Source: article PMC6562696, “Anti-Inflammatory Effects by Pharmacological Inhibition or Knockdown of Fatty Acid Amide Hydrolase in BV2 Microglial Cells” (Cells, 2019)

Target: T1, Fatty acid amide hydrolase (FAAH) (Mus musculus, UniProt O08914)
T1 construct: endogenous FAAH in BV2 microglial cell membrane fraction
T1 sequence (O08914 1-579): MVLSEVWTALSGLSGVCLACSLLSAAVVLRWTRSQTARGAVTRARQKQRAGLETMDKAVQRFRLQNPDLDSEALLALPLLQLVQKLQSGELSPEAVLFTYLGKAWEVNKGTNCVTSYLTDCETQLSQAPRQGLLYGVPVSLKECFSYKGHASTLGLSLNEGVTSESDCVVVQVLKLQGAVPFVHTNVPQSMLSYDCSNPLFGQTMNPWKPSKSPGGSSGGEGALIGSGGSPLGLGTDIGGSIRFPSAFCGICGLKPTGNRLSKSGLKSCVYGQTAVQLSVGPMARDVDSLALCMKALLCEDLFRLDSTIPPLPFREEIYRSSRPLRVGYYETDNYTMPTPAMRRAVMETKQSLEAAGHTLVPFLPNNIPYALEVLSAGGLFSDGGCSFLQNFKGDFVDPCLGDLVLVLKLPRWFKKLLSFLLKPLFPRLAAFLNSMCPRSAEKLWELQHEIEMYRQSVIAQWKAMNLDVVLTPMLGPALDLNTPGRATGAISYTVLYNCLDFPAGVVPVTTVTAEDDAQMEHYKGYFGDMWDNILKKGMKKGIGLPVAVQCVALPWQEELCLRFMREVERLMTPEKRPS
Assay: radiolabeled AEA hydrolysis in BV2 membranes; blocked by FAAH inhibitors, reduced […] by FAAH siRNA
Format: cell-based

With `CCCCC/C=C\C/C=C\C/C=C\C/C=C\CCCC(=O)NCCO` [anandamide] the “radiolabeled AEA hydrolysis in BV2 membranes; blocked by FAAH inhibitors, reduce” value was “These results indicated that all AEA hydrolysis activity was attributed to FAAH in BV2 microglial cells”.
